Laboratory results: patent US4363805A, “Aminodesoxy-1.4;3.6-dianhydrohexitol nitrates and pharmaceutical composition” (Firma Willmar Schwabe, priority 1980, dated 1982)

Key:
[1] = test system: isolated guinea pig hearts; experiment: Experiments on Langendorff hearts (coronary flowthrough, inotropism, frequency); details: Cavia porcellus, read-out: flowthrough, percentage change with regard to the initial value
Method: After reaching the stationary state in the 30th minute, the hearts were each perfused with 50 ml. tyrode solution with a content of test substance of, in each case, 25 μg./ml. Each test substance was tested on 3-6 hearts.
In each case, there was measured the inotropism, the flowthrough and the frequency, whereby the values given in Table I are average values of the percentage changes in comparison with the initial values.

[2] = Acute toxicity, intravenous, mice; assay type: in vivo; details: mouse, in vivo; intravenous, within 24 hours; read-out: Evaluated LD50-range
female NMRI-albino mice = experiment: Acute toxicity, intravenous, mice; assay type: in vivo; details: within 24 hours
narcotised guinea pigs = experiment: Blood pressure experiments on guinea pigs, i.v.; assay type: in vivo, guinea pig; details: for blood pressure before: before administration

In the case of `N[C@@H]1CO[C@H]2[C@@H]1OC[C@@H]2O[N+](=O)[O-]` [2 b], the activation at 25 µg/mL [1] is reported as 25.9%, the LD50 at 24 h [2] is reported as greater than 200 mg/kg and the Frequency of death (female NMRI-albino mice; 200 mg/kg i.v.) is reported as 0/3. The blood pressure after (narcotised guinea pigs; 0.25 mg/kg i.v.) was 50.25 ± 8.19 mm.Hg, the “blood pressure Δ” value (narcotised guinea pigs; 0.25 mg/kg i.v.) was -5.75 mm.Hg and the blood pressure before (narcotised guinea pigs; 0.25 mg/kg i.v.) was 56.00 ± 7.91 mm.Hg. The blood pressure after (narcotised guinea pigs; 1.00 mg/kg i.v.) was 41.50 ± 4.66 mm.Hg, the “blood pressure Δ” value (narcotised guinea pigs; 1.00 mg/kg i.v.) was -14.25 mm.Hg and the blood pressure after (narcotised guinea pigs; 2.50 mg/kg i.v.) was 31.75 ± 3.09 mm.Hg. The “blood pressure Δ” value (narcotised guinea pigs; 2.50 mg/kg i.v.) was -19.50 mm.Hg.
With `CN(C)[C@H]1CO[C@H]2[C@@H]1OC[C@@H]2O[N+](=O)[O-]` [12 b] the activation at 25 µg/mL [1] was 16.2%, the LD50 at 24 h [2] was greater than 200 mg/kg and the Frequency of death (female NMRI-albino mice; 200 mg/kg i.v.) was 0/3.
With `CCN(CC)[C@H]1CO[C@H]2[C@@H]1OC[C@@H]2O[N+](=O)[O-]` [13 b] the activation at 25 µg/mL [1] was 9.05%, the LD50 at 24 h [2] was 100 to 200 mg/kg and the Frequency of death (female NMRI-albino mice; 100 mg/kg i.v.) was 0/3. The Frequency of death (female NMRI-albino mice; 200 mg/kg i.v.) was 6/6.
In the case of `O=[N+]([O-])O[C@H]1CO[C@H]2[C@@H]1OC[C@@H]2N1CCCC1` [14 b], the activation at 25 µg/mL [1] is reported as 25.4%, the LD50 at 24 h [2] is reported as no less than 200 mg/kg and the Frequency of death (female NMRI-albino mice; 200 mg/kg i.v.) is reported as 1/3. For the same compound, the blood pressure after (narcotised guinea pigs; 0.25 mg/kg i.v.) was 65.75 ± 0.75 mm.Hg, the “blood pressure Δ” value (narcotised guinea pigs; 0.25 mg/kg i.v.) was -5.50 mm.Hg and the blood pressure before (narcotised guinea pigs; 0.25 mg/kg i.v.) was 71.25 ± 0.63 mm.Hg. The blood pressure after (narcotised guinea pigs; 1.00 mg/kg i.v.) was 56.25 ± 2.17 mm.Hg, the “blood pressure Δ” value (narcotised guinea pigs; 1.00 mg/kg i.v.) was -14.00 mm.Hg and the blood pressure after (narcotised guinea pigs; 2.50 mg/kg i.v.) was 49.25 ± 3.94 mm.Hg. The “blood pressure Δ” value (narcotised guinea pigs; 2.50 mg/kg i.v.) was -18.50 mm.Hg.
With `CC(C)(C)C(=O)N[C@H]1CO[C@H]2[C@@H]1OC[C@@H]2O[N+](=O)[O-]` [Example 5, 5-Pivaloylamino-5-desoxy-1.4;3.6-dianhydro-L-iditol 2-nitrate] the activation at 25 µg/mL [1] was 21.2%, the blood pressure after (narcotised guinea pigs; 0.25 mg/kg i.v.) was 54.00 ± 2.52 mm.Hg and the “blood pressure Δ” value (narcotised guinea pigs; 0.25 mg/kg i.v.) was -10.50 mm.Hg. The blood pressure before (narcotised guinea pigs; 0.25 mg/kg i.v.) was 64.50 ± 2.75 mm.Hg, the blood pressure after (narcotised guinea pigs; 1.00 mg/kg i.v.) was 40.50 ± 3.66 mm.Hg and the “blood pressure Δ” value (narcotised guinea pigs; 1.00 mg/kg i.v.) was -22.75 mm.Hg. For the same compound, the blood pressure after (narcotised guinea pigs; 2.50 mg/kg i.v.) was 30.75 ± 8.60 mm.Hg, the “blood pressure Δ” value (narcotised guinea pigs; 2.50 mg/kg i.v.) was -31.75 mm.Hg and the “blood pressure-lowering effectiveness (in words)” value (narcotised guinea pigs; i.v.) was “stronger action than ISDN”.
With `CN(Cc1ccccc1)[C@H]1CO[C@H]2[C@@H]1OC[C@@H]2O[N+](=O)[O-]` [Example 19, 5-(N-Benzyl-N-methylamino)-5-desoxy-1.4;3.6-dianhydro-L-iditol 2-nitrate] the activation at 25 µg/mL [1] was 100%, the LD50 at 24 h [2] was 100 to 200 mg/kg and the Frequency of death (female NMRI-albino mice; 100 mg/kg i.v.) was 0/3. The Frequency of death (female NMRI-albino mice; 200 mg/kg i.v.) was 6/6.
